Source: US20260130395A1, “Water Dispersible Botanical Compositions” (Aquila Black Limited, priority 2021, published 2026)

Experiment: Stability of cannabinoid compounds and Vitamin E components in Beverage 1 (AB White) by LCMSMS
Format: physicochemical
Settings: for Stability of Plant-Derived Cannabinoid Compounds in AB White, 8° C.: AB White stored at 8° C.; for Stability of Plant-Derived Cannabinoid Compounds in AB White, 21-25° C.: AB White stored at 21-25° C.

Structure (SMILES): CCCCCc1cc2c(c(O)c1C(=O)O)[C@@H]1C=C(C)CC[C@H]1C(C)(C)O2 [D9 THCA, delta-9-tetrahydrocannabinolic acid]
- Stability of Plant-Derived Cannabinoid Compounds in AB White, 8° C. (0 days): 0.950 µg/mL
- Stability of Plant-Derived Cannabinoid Compounds in AB White, 8° C. (1 days): 0.956 µg/mL
- Stability of Plant-Derived Cannabinoid Compounds in AB White, 8° C. (2 days): 0.954 µg/mL
- Stability of Plant-Derived Cannabinoid Compounds in AB White, 8° C. (3 days): 0.934 µg/mL
- Stability of Plant-Derived Cannabinoid Compounds in AB White, 8° C. (5 days): 0.956 µg/mL
- Stability of Plant-Derived Cannabinoid Compounds in AB White, 8° C. (8 days): 0.949 µg/mL
- Stability of Plant-Derived Cannabinoid Compounds in AB White, 8° C. (9 days): 0.937 µg/mL
- Stability of Plant-Derived Cannabinoid Compounds in AB White, 8° C. (10 days): 0.960 µg/mL
- Stability of Plant-Derived Cannabinoid Compounds in AB White, 8° C. (11 days): 0.929 µg/mL
- Stability of Plant-Derived Cannabinoid Compounds in AB White, 8° C. (12 days): 0.942 µg/mL
- Stability of Plant-Derived Cannabinoid Compounds in AB White, 8° C. (15 days): 0.944 µg/mL
- Stability of Plant-Derived Cannabinoid Compounds in AB White, 8° C. (16 days): 0.932 µg/mL
- Stability of Plant-Derived Cannabinoid Compounds in AB White, 8° C. (17 days): 0.951 µg/mL
- Stability of Plant-Derived Cannabinoid Compounds in AB White, 8° C. (18 days): 0.950 µg/mL
- Stability of Plant-Derived Cannabinoid Compounds in AB White, 8° C. (19 days): 0.959 µg/mL
- Stability of Plant-Derived Cannabinoid Compounds in AB White, 8° C. (22 days): 0.960 µg/mL
- Stability of Plant-Derived Cannabinoid Compounds in AB White, 8° C. (23 days): 0.931 µg/mL
- Stability of Plant-Derived Cannabinoid Compounds in AB White, 8° C. (24 days): 0.926 µg/mL
- Stability of Plant-Derived Cannabinoid Compounds in AB White, 8° C. (25 days): 0.957 µg/mL
- Stability of Plant-Derived Cannabinoid Compounds in AB White, 8° C. (26 days): 0.956 µg/mL
- Stability of Plant-Derived Cannabinoid Compounds in AB White, 8° C. (29 days): 0.939 µg/mL
- Stability of Plant-Derived Cannabinoid Compounds in AB White, 8° C. (30 days): 0.955 µg/mL
- Stability of Plant-Derived Cannabinoid Compounds in AB White, 8° C. (60 days): 0.914 µg/mL
- Stability of Plant-Derived Cannabinoid Compounds in AB White, 8° C. (90 days): 0.948 µg/mL
- Stability of Plant-Derived Cannabinoid Compounds in AB White, 8° C. (120 days): 0.932 µg/mL
- Stability of Plant-Derived Cannabinoid Compounds in AB White, 8° C. (150 days): 0.952 µg/mL
- Stability of Plant-Derived Cannabinoid Compounds in AB White, 8° C. (180 days): 0.941 µg/mL
- Stability of Plant-Derived Cannabinoid Compounds in AB White, 8° C. (210 days): 0.923 µg/mL
- Stability of Plant-Derived Cannabinoid Compounds in AB White, 8° C. (240 days): 0.932 µg/mL
- Stability of Plant-Derived Cannabinoid Compounds in AB White, 8° C. (270 days): 0.933 µg/mL
- Stability of Plant-Derived Cannabinoid Compounds in AB White, 8° C. (300 days): 0.939 µg/mL
- Stability of Plant-Derived Cannabinoid Compounds in AB White, 8° C. (330 days): 0.909 µg/mL
- Stability of Plant-Derived Cannabinoid Compounds in AB White, 8° C. (360 days): 0.913 µg/mL
- Stability of Plant-Derived Cannabinoid Compounds in AB White, 8° C. (390 days): 0.923 µg/mL
- Stability of Plant-Derived Cannabinoid Compounds in AB White, 8° C. (420 days): 0.916 µg/mL
- Stability of Plant-Derived Cannabinoid Compounds in AB White, 8° C. (450 days): 0.923 µg/mL
- Stability of Plant-Derived Cannabinoid Compounds in AB White, 8° C. (480 days): 0.905 µg/mL
- Stability of Plant-Derived Cannabinoid Compounds in AB White, 8° C. (510 days): 0.873 µg/mL
- Stability of Plant-Derived Cannabinoid Compounds in AB White, 8° C. (540 days): 0.877 µg/mL
- Stability of Plant-Derived Cannabinoid Compounds in AB White, 8° C. (570 days): 0.872 µg/mL
- Stability of Plant-Derived Cannabinoid Compounds in AB White, 21-25° C. (0 days): 0.950 µg/mL
- Stability of Plant-Derived Cannabinoid Compounds in AB White, 21-25° C. (1 days): 0.960 µg/mL
- Stability of Plant-Derived Cannabinoid Compounds in AB White, 21-25° C. (2 days): 0.938 µg/mL
- Stability of Plant-Derived Cannabinoid Compounds in AB White, 21-25° C. (3 days): 0.920 µg/mL
- Stability of Plant-Derived Cannabinoid Compounds in AB White, 21-25° C. (5 days): 0.958 µg/mL
- Stability of Plant-Derived Cannabinoid Compounds in AB White, 21-25° C. (8 days): 0.937 µg/mL
- Stability of Plant-Derived Cannabinoid Compounds in AB White, 21-25° C. (9 days): 0.926 µg/mL
- Stability of Plant-Derived Cannabinoid Compounds in AB White, 21-25° C. (10 days): 0.935 µg/mL
- Stability of Plant-Derived Cannabinoid Compounds in AB White, 21-25° C. (11 days): 0.949 µg/mL
- Stability of Plant-Derived Cannabinoid Compounds in AB White, 21-25° C. (12 days): 0.935 µg/mL
- Stability of Plant-Derived Cannabinoid Compounds in AB White, 21-25° C. (15 days): 0.948 µg/mL
- Stability of Plant-Derived Cannabinoid Compounds in AB White, 21-25° C. (16 days): 0.921 µg/mL
- Stability of Plant-Derived Cannabinoid Compounds in AB White, 21-25° C. (17 days): 0.919 µg/mL
- Stability of Plant-Derived Cannabinoid Compounds in AB White, 21-25° C. (18 days): 0.928 µg/mL
- Stability of Plant-Derived Cannabinoid Compounds in AB White, 21-25° C. (19 days): 0.917 µg/mL
- Stability of Plant-Derived Cannabinoid Compounds in AB White, 21-25° C. (22 days): 0.947 µg/mL
- Stability of Plant-Derived Cannabinoid Compounds in AB White, 21-25° C. (23 days): 0.924 µg/mL
- Stability of Plant-Derived Cannabinoid Compounds in AB White, 21-25° C. (24 days): 0.927 µg/mL
- Stability of Plant-Derived Cannabinoid Compounds in AB White, 21-25° C. (25 days): 0.948 µg/mL
- Stability of Plant-Derived Cannabinoid Compounds in AB White, 21-25° C. (26 days): 0.921 µg/mL
- Stability of Plant-Derived Cannabinoid Compounds in AB White, 21-25° C. (29 days): 0.922 µg/mL
- Stability of Plant-Derived Cannabinoid Compounds in AB White, 21-25° C. (30 days): 0.934 µg/mL
- Stability of Plant-Derived Cannabinoid Compounds in AB White, 21-25° C. (60 days): 0.896 µg/mL
- Stability of Plant-Derived Cannabinoid Compounds in AB White, 21-25° C. (90 days): 0.892 µg/mL
- Stability of Plant-Derived Cannabinoid Compounds in AB White, 21-25° C. (120 days): 0.894 µg/mL
- Stability of Plant-Derived Cannabinoid Compounds in AB White, 21-25° C. (150 days): 0.934 µg/mL
- Stability of Plant-Derived Cannabinoid Compounds in AB White, 21-25° C. (180 days): 0.945 µg/mL
- Stability of Plant-Derived Cannabinoid Compounds in AB White, 21-25° C. (210 days): 0.913 µg/mL
- Stability of Plant-Derived Cannabinoid Compounds in AB White, 21-25° C. (240 days): 0.892 µg/mL
- Stability of Plant-Derived Cannabinoid Compounds in AB White, 21-25° C. (270 days): 0.905 µg/mL
- Stability of Plant-Derived Cannabinoid Compounds in AB White, 21-25° C. (300 days): 0.888 µg/mL
- Stability of Plant-Derived Cannabinoid Compounds in AB White, 21-25° C. (330 days): 0.894 µg/mL
- Stability of Plant-Derived Cannabinoid Compounds in AB White, 21-25° C. (360 days): 0.925 µg/mL
- Stability of Plant-Derived Cannabinoid Compounds in AB White, 21-25° C. (390 days): 0.907 µg/mL
- Stability of Plant-Derived Cannabinoid Compounds in AB White, 21-25° C. (420 days): 0.909 µg/mL
- Stability of Plant-Derived Cannabinoid Compounds in AB White, 21-25° C. (450 days): 0.921 µg/mL
- Stability of Plant-Derived Cannabinoid Compounds in AB White, 21-25° C. (480 days): 0.873 µg/mL
- Stability of Plant-Derived Cannabinoid Compounds in AB White, 21-25° C. (510 days): 0.903 µg/mL
- Stability of Plant-Derived Cannabinoid Compounds in AB White, 21-25° C. (540 days): 0.877 µg/mL
- Stability of Plant-Derived Cannabinoid Compounds in AB White, 21-25° C. (570 days): 0.877 µg/mL
